17 compounds from patent US12319701B2, “Antagonists of the muscarinic acetylcholine receptor M4” (priority 2019, dated 2025) can be followed below.

In the assay the target is T1, Human M4 (Homo sapiens, UniProt P08173).
T1 construct: expressed in transfected cells; host or cells: CHO-K1 (ATCC), stably co-expressing chimeric G protein Gqi5
T1 sequence (P08173 1-479): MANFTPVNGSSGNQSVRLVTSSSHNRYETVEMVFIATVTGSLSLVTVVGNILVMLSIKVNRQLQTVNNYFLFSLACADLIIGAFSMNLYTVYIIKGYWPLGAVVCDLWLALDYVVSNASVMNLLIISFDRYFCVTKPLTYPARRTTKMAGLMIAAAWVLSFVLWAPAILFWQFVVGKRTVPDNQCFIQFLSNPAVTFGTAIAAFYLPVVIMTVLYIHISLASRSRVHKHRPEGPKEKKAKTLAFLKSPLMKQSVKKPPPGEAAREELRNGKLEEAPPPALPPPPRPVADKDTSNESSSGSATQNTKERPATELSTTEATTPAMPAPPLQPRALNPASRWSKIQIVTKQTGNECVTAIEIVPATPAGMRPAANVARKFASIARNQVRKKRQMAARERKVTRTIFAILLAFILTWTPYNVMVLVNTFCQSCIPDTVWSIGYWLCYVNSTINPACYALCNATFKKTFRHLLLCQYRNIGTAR
Put plainly: mAChR M4 cell-based functional assay (calcium flux, Fluo-4, M4/Gqi5/CHO-K1 cells). To be noted: for remaining activity at 30 µM: CHO-K1, read-out: Human M4 Emin (%), % ACh maximum at 30 μM. Here is the method: Human or rat M4 cDNA, along with the chimeric G protein Gqi5, were transfected into Chinese hamster ovary (CHO-K1) cells purchased from the American Type Culture Collection using Lipofectamine2000. M4/Gqi5/CHO cells were grown in Ham's F-12 medium containing 10% heat-inactivated fetal bovine serum (FBS), 20 mM HEPES, 500 μg/mL 418 sulfate, and 200 μg/mL Hygromycin B.
For high throughput measurement of agonist-evoked increases in intracellular calcium, CHO-K1 cells stably expressing muscarinic receptors were plated in growth medium lacking 418 and hygromycin at 15,000 cells/20 μL/well in Greiner 384-well black-walled, tissue culture (TC)-treated, clear-bottom plates (VWR). Cells were incubated overnight at 37° C. and 5% CO2. The next day, cells were washed using an ELX 405 (BioTek) with assay buffer; the final volume was then aspirated to 20 μL. Next, 20 μL of a 2.3 μM stock of Fluo-4/acetoxymethyl ester (Invitrogen, Carlsbad, CA), prepared as a 2.3 mM stock in DMSO and mixed in a 1:1 ratio with 10% (w/v) Pluronic F-127 and diluted in assay buffer, was added to the wells and the cell plates were incubated for 50 min at 37° C. and 5% CO2. Dye was removed by washing with the ELX 405 and the final volume was aspirated to 20 μL. Compound master plates were formatted in a 10 point concentration-response curve (CRC) format (1:3 dilutions) in 100% DMSO with a starting concentration of 10 or 1 mM using a BRAVO liquid handler (Agilent). Test compound CRCs were then transferred to daughter plates (240 nL) using the Echo acoustic plate reformatter (Labcyte, Sunnyvale, CA) and then diluted into assay buffer (40 μL) to a 2× stock using a Thermo Fisher Combi (Thermo Fisher Scientific, Waltham, MA).
Calcium flux was measured using the Functional Drug Screening System (FDSS) 6000 or 7000 (Hamamatsu Corporation, Tokyo, Japan) as an increase in the fluorescent static ratio. Compounds were applied to cells (20 μL, 2×) using the automated system of the FDSS at 2 seconds into the protocol and the data were collected at 1 Hz. At 143 s, 10 μL of an EC20 concentration of the muscarinic receptor agonist acetylcholine was added (5×), followed by the addition of 12 μL of an EC80 concentration of acetylcholine at the 268 s time point (5×). Agonist activity was analyzed as a concentration-dependent increase in calcium mobilization upon compound addition. Positive allosteric modulator activity was analyzed as a concentration-dependent increase in the EC20 acetylcholine response. Antagonist activity was analyzed as a concentration-dependent decrease in the ECK) acetylcholine response; for the purposes of the tables herein, an IC50 (inhibitory concentration 50) was calculated as a concentration-dependent decrease of the response elicited by an ECK) concentration of acetylcholine. Concentration-response curves were generated using a four-parameter logistical equation in XLFit curve fitting software (IDBS, Bridgewater, NJ) for Excel (Microsoft, Redmond, WA) or Prism (GraphPad Software, Inc., San Diego, CA) or the Dotmatics software platform (Dotmatics, Bishop's Stortford, UK).
Compounds were synthesized as described above. Activity (IC50 and Emin) was determined in the mAChR M4 cell-based functional assay as described above and the data are shown in Table 2.
In general terms: Calcium flux is commonly read through the fluorescence of an indicator in the cells.

In general, IC50 refers to the point on the concentration scale where inhibition reaches its midpoint.

For the compound `Clc1nnc(N[C@H]2C[C@@H]3CN(CC4CCOCC4)C[C@@H]3C2)c2ccsc12` [compound 1, 7-chloro-N-((3aR,5s,6aS)-2-((tetrahydro-2H-pyran-4-yl)methyl)octahydrocyclopenta[c]pyrrol-5-yl)thieno[2,3-d]pyridazin-4-amine], the half-inhibitory concentration (IC50) worked out at 204 nM and the remaining activity at 30 µM came to 3%.

Consider `Fc1ccc(F)c(-c2nnc(N[C@H]3C[C@@H]4CN(CC5CCOCC5)C[C@@H]4C3)c3ccsc23)c1` [compound 2, 7-(2,5-difluorophenyl)-N-((3aR,5s,6aS)-2-((tetrahydro-2H-pyran-4-yl)methyl)octahydrocyclopenta[c]pyrrol-5-yl)thieno[2,3-d]pyridazin-4-amine], for which the 50% inhibitory concentration (IC50) worked out at 2.91 nM and the remaining activity at 30 µM was found to be 3%.

Take `Cc1ccc(F)cc1-c1nnc(N[C@H]2C[C@@H]3CN(CC4CCOCC4)C[C@@H]3C2)c2ccsc12` [compound 3, 7-(5-fluoro-2-methylphenyl)-N-((3aR,5s,6aS)-2-((tetrahydro-2H-pyran-4-yl)methyl)octahydrocyclopenta[c]pyrrol-5-yl)thieno[2,3-d]pyridazin-4-amine]: the IC50 was 5.11 nM and the remaining activity at 30 µM came to 3%.

`Cc1ccc(C)c(-c2nnc(N[C@H]3C[C@@H]4CN(CC5CCOCC5)C[C@@H]4C3)c3ccsc23)c1` [compound 4, 7-(2,5-dimethylphenyl)-N-((3aR,5s,6aS)-2-((tetrahydro-2H-pyran-4-yl)methyl)octahydrocyclopenta[c]pyrrol-5-yl)thieno[2,3-d]pyridazin-4-amine]: the IC50 came out at 13.6 nM and the remaining activity at 30 µM stood at 3%.

`Cc1ccccc1-c1nnc(N[C@H]2C[C@@H]3CN(CC4CCOCC4)C[C@@H]3C2)c2ccsc12` [compound 5, N-((3aR,5s,6aS)-2-((tetrahydro-2H-pyran-4-yl)methyl)octahydrocyclopenta[c]pyrrol-5-yl)-7-(o-tolyl)thieno[2,3-d]pyridazin-4-amine]: the concentration for half-maximal inhibition (IC50) is 2.47 nM and the remaining activity at 30 µM came to 4%.

In the case of `COc1ccccc1-c1nnc(N[C@H]2C[C@@H]3CN(CC4CCOCC4)C[C@@H]3C2)c2ccsc12` [compound 6, 7-(2-methoxyphenyl)-N-((3aR,5s,6aS)-2-((tetrahydro-2H-pyran-4-yl)methyl)octahydrocyclopenta[c]pyrrol-5-yl)thieno[2,3-d]pyridazin-4-amine], the IC50 was 8080 nM and the remaining activity at 30 µM was found to be 20%.

Consider `Fc1ccccc1-c1nnc(N[C@H]2C[C@@H]3CN(CC4CCOCC4)C[C@@H]3C2)c2ccsc12` [compound 7, 7-(2-fluorophenyl)-N-((3aR,5s,6aS)-2-((tetrahydro-2H-pyran-4-yl)methyl)octahydrocyclopenta[c]pyrrol-5-yl)thieno[2,3-d]pyridazin-4-amine], for which the IC50 amounted to 7690 nM and the remaining activity at 30 µM came to 15%.

In the case of `c1ccc(-c2nnc(N[C@H]3C[C@@H]4CN(CC5CCOCC5)C[C@@H]4C3)c3ccsc23)cc1` [compound 8, 7-phenyl-N-((3aR,5s,6aS)-2-((tetrahydro-2H-pyran-4-yl)methyl)octahydrocyclopenta[c]pyrrol-5-yl)thieno[2,3-d]pyridazin-4-amine], the IC50 amounted to 4.72 nM and the remaining activity at 30 µM was determined as 3%.

Regarding `Cn1cc2cc(-c3nnc(N[C@H]4C[C@@H]5CN(CC6CCOCC6)C[C@@H]5C4)c4ccsc34)ccc2n1` [compound 9, 7-(2-methyl-2H-indazol-5-yl)-N-((3aR,5s,6aS)-2-((tetrahydro-2H-pyran-4-yl)methyl)octahydrocyclopenta[c]pyrrol-5-yl)thieno[2,3-d]pyridazin-4-amine], the IC50 came to 2.96 nM and the remaining activity at 30 µM was 3%.

Turning to `Fc1ccc(F)c(-c2nnc(N[C@H]3C[C@@H]4CN(CC5CCOCC5)C[C@@H]4C3)c3sccc23)c1` [compound 10, 4-(2,5-difluorophenyl)-N-((3aR,5s,6aS)-2-((tetrahydro-2H-pyran-4-yl)methyl)octahydrocyclopenta[c]pyrrol-5-yl)thieno[2,3-d]pyridazin-7-amine], the IC50 worked out at 6.25 nM and the remaining activity at 30 µM was 4%.

With `Cc1ccc(F)cc1-c1nnc(N[C@H]2C[C@@H]3CN(CC4CCOCC4)C[C@@H]3C2)c2sccc12` [compound 11, 4-(5-fluoro-2-methylphenyl)-N-((3aR,5s,6aS)-2-((tetrahydro-2H-pyran-4-yl)methyl)octahydrocyclopenta[c]pyrrol-5-yl)thieno[2,3-d]pyridazin-7-amine], the IC50 was found to be 1.6 nM and the remaining activity at 30 µM was 3%.

For `Clc1nnc(N[C@H]2C[C@@H]3CN(CC4CCOCC4)C[C@@H]3C2)c2sccc12` [compound 12, 4-chloro-N-((3aR,5s,6aS)-2-((tetrahydro-2H-pyran-4-yl)methyl)octahydrocyclopenta[c]pyrrol-5-yl)thieno[2,3-d]pyridazin-7-amine], the IC50 worked out at 284 nM and the remaining activity at 30 µM turned out to be 5%.

Take `Cn1cc2cc(-c3nnc(N[C@H]4C[C@@H]5CN(CC6CCOCC6)C[C@@H]5C4)c4sccc34)ccc2n1` [compound 13, 4-(2-methyl-2H-indazol-5-yl)-N-((3aR,5s,6aS)-2-((tetrahydro-2H-pyran-4-yl)methyl)octahydrocyclopenta[c]pyrrol-5-yl)thieno[2,3-d]pyridazin-7-amine]: the IC50 turned out to be 0.697 nM and the remaining activity at 30 µM turned out to be 3%.

`c1ccc(-c2nnc(N[C@H]3C[C@@H]4CN(CC5CCOCC5)C[C@@H]4C3)c3sccc23)cc1` [compound 14, 4-phenyl-N-((3aR,5s,6aS)-2-((tetrahydro-2H-pyran-4-yl)methyl)octahydrocyclopenta[c]pyrrol-5-yl)thieno[2,3-d]pyridazin-7-amine]: the IC50 was determined as 1.46 nM and the remaining activity at 30 µM stood at 4%.

On to `Fc1ccccc1-c1nnc(N[C@H]2C[C@@H]3CN(CC4CCOCC4)C[C@@H]3C2)c2sccc12` [compound 15, 4-(2-fluorophenyl)-N-((3aR,5s,6aS)-2-((tetrahydro-2H-pyran-4-yl)methyl)octahydrocyclopenta[c]pyrrol-5-yl)thieno[2,3-d]pyridazin-7-amine], for which the IC50 came out at 2.31 nM and the remaining activity at 30 µM stood at 3%.

Regarding `Fc1cc(F)c(F)c(-c2nnc(N[C@H]3C[C@@H]4CN(CC5CCOCC5)C[C@@H]4C3)c3ccsc23)c1` [compound 16, N-((3aR,5s,6aS)-2-((tetrahydro-2H-pyran-4-yl)methyl)octahydrocyclopenta[c]pyrrol-5-yl)-7-(2,3,5-trifluorophenyl)thieno[2,3-d]pyridazin-4-amine], the half-inhibitory concentration (IC50) is 1.71 nM and the remaining activity at 30 µM amounted to 4%.

`Cc1c(-c2nnc(N[C@H]3C[C@@H]4CN(CC5CCOCC5)C[C@@H]4C3)c3ccsc23)ccc2nn(C)cc12` [compound 17, 7-(2,4-dimethyl-2H-indazol-5-yl)-N-((3aR,5s,6aS)-2-((tetrahydro-2H-pyran-4-yl)methyl)octahydrocyclopenta[c]pyrrol-5-yl)thieno[2,3-d]pyridazin-4-amine]: the IC50 was 0.65 nM and the remaining activity at 30 µM was found to be 3%.
